“Also recorded” adds a separate entry of the source.
Tested on: 18 yeastlike and 3 Filamentus fungii
Assay: Agar dilution assay, whole panel
Assay type: cell-based
Details: for MIC: 48 h
Text: For the agar dilution assay, the test panel consisted of 18 yeastlike and 3 Filamentus fungii. Four media were used. These were yeast nitrogen base dextrose (0.5% agar) (YNBDA); pH 5.5; YNBDA with pH adjusted to pH 7.5; and micrological agar (MA), pH 7.0; and Sabouraud dextrose agar, pH 5.7. The media was manufactured by Difco (Detroit, MI) and prepared according to the manufacturer's instructions.
The test compounds were solubilized in 10% aqueous DMSO; the control drug, Nystatin, was solublized in 10% aqueous DMF. The drugs were serially diluted twofold in sterile water to yield concentrations of 1.28 mg/ml to […]. One ml of diluted drug was added to 9 ml of cooled (50° C.) molten agar in plastic petri plates to yield final drug concentrations in the agar ranging from 128 to 0.063 ug/ml. Appropriate solvent and media control plates were prepared as well, and all plates stored in the dark at 4° C. overnight. The yeast cultures, maintained in yeast maltose (YM; Difco), were transferred to fresh YM medium and incubating overnight at 37° C. with shaking at 250 rpm. After incubation each culture was diluted in sterile saline to yield concentrations of 3×10^5 to 3×10^6 cfu/ml. Isolates of aspergillis and penicillium were made on potato dextrose agar slants, and spore suspensions were made following vigorous shaking with sterile glass beads. The spore preparation were used as inocula for these fungi.
Each prepared place was inoculated with the 21-member panel using a Denleigh multipoint inoculator (Sussex, England). The inoculator delivers approximately 1 ul to the agar surface, resulting in inoculation of from 3×10^2 to 3×10^3 cfu. The plates were incubated at 28° C. for 48 h, and the minimum inhibitory concentrations (MIC) of each drug were recorded as the lower concentration of the drug permitting no growth or growth of less than 3 cfu/spot.

For `CCCCCCCCc1ccc2nc(N)nc(N)c2c1C` [2,4-Diamino-5-methyl-6-n-octylquinazoline], the MIC (pH 5.7) was over 128 µg/mL, the MIC (Candida tropicalis, pH 5.5) was at least 128 µg/mL and the “antifungal activity in words” value (Table 3 panel) was “inhibitory for a large variety of yeast and Filamentus fungii; also recorded: extremely toxic with regard to a wide variety of fungi”.

Reference: patent US4818753A, “Synthesis and method of use for 2, 4 diaminoquinazoline” (SRI International, priority 1987, dated 1989)
